# Laboratory results: paper PMC13293952 (Cell Reports Medicine, 2026)
# Assays:
# [1] = tested on: CFA mice; experiment: CFA model of inflammatory pain, von Frey paw withdrawal threshold; format: in vivo, mouse; details: 3 mg/kg s.c. on days 11 and 40 after CFA, AAV8-tdTomato controls
# [2] = molecular target: PICK1 (Rattus norvegicus, UniProt Q9EP80); experiment: FPLC; format: biochemical; details: FPLC Superdex 200, PICK1 40 µM, molar ratio 1:4 or 1:2, >=20 h at 4°C, A280
# Sequence of PICK1 (Q9EP80 whole entry): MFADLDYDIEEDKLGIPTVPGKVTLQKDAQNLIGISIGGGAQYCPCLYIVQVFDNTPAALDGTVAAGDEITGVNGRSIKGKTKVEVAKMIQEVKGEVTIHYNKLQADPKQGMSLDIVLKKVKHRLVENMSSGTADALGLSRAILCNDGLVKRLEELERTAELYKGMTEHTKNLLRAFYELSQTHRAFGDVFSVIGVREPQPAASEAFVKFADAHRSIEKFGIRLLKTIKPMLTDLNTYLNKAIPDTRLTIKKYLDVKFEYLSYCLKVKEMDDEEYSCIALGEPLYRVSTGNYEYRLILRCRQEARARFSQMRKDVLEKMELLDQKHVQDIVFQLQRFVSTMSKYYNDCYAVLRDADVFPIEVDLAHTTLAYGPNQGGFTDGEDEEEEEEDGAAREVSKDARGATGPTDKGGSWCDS
compound,measurement,setting,value
"O=C1CC[C@@]2(O)[C@H]3Cc4ccc(O)c5c4[C@@]2(CCN3CC2CC2)[C@H]1O5 [NTX, naltrexone]",reinstatement of allodynia,[1],selectively reinstated allodynia in this group
biotin-ahx-GEELLEDIRKFNEMRKNMDQLKEKINSVLSIRQGGGGS-HWLKV [SSO10a-C5],PICK1 oligomerization,[2],drove PICK1 oligomerization
